SMILES strings stand for the structures. Activity calls are given as the source filed them. The rule behind the calls is not given here.

Consider 5 compounds from ChEMBL document CHEMBL1681700, “Cytotoxic 3,6-bis((imidazolidinone)imino)acridines: synthesis, DNA binding and molecular modeling” (Bioorg Med Chem, 2011).

The test system of data set [1] is Calf thymus DNA. As to the kind of experiment: Binding affinity to calf thymus DNA assessed as hypochromic effect by UV-visible spectrophotometer. Type of data set: nucleic-acid assay. Also noted: concentration or dose not given beside the values. Conditions: Bos taurus.
The species entered for data set [2] is Bos taurus. As to the kind of experiment: Inhibition of calf thymus topoisomerase 1-mediated supercoiled DNA relaxation at 40 uM after 45 mins by ethidium bromide staining agarose gel electrophoresis.
Data set [3] can be described thus: Octanol-water partition coefficient, log P of the compound. It is filed as physicochemical.
In data set [4] the test system is HL-60. The data set can be described thus: Cytotoxicity against human HL60 cells after 72 hrs by MTT assay. Conditions: HL-60, 72 h. Type of data set: functional, cell-based. (In general: Tetrazolium assays rely on reduction of a dye to a coloured formazan, in cell work by metabolically active cells.)
For data set [5], the system named is Calf thymus DNA. As to the kind of experiment: Binding affinity to calf thymus DNA at pH 7.4 by UV-visible spectrophotometer. It is filed as nucleic-acid assay. As to conditions: Bos taurus.
The species entered for data set [6] is Bos taurus. The data set can be described thus: Inhibition of calf thymus topoisomerase 1-mediated supercoiled DNA relaxation at 5 uM after 45 mins by ethidium bromide staining agarose gel electrophoresis.
The test system of data set [7] is L1210. As to the kind of experiment: Cytotoxicity against mouse L1210 cells after 72 hrs by trypan blue dye exclusion test. It is filed as functional, cell-based. As to conditions: L1210, 72 h.
In data set [8] the test system is HL-60. As to the kind of experiment: Cytotoxicity against human HL60 cells after 48 hrs by MTT assay. It is filed as functional, cell-based. Conditions: HL-60, 48 h.
The subject of data set [9] is L1210. As to the kind of experiment: Cytotoxicity against mouse L1210 cells after 72 hrs by MTT assay. Type of data set: functional, cell-based. Conditions: L1210, 72 h.
In data set [10] the test system is L1210. The data set can be described thus: Cytotoxicity against mouse L1210 cells after 48 hrs by trypan blue dye exclusion test. As to conditions: L1210, 48 h. It is filed as functional, cell-based.
Data set [11] has as its system HL-60. As to the kind of experiment: Cytotoxicity against human HL60 cells after 72 hrs by trypan blue dye exclusion test. It is filed as functional, cell-based. As to conditions: HL-60, 72 h.
Data set [12] relates to HL-60. As to the kind of experiment: Cytotoxicity against human HL60 cells after 48 hrs by trypan blue dye exclusion test. It is filed as functional, cell-based. Conditions: HL-60, 48 h.
For data set [13], the system named is Calf thymus DNA. The data set can be described thus: Binding affinity to C:G base pair region of calf thymus DNA by UV-visible spectrophotometer. It is filed as nucleic-acid assay. As to conditions: Bos taurus.
For the next data set, the system named is U-937. The data set can be described thus: Induction of apoptosis in human U937 cells assessed as DNA fragmentation at 122 uM after 18 hrs by ethidium bromide staining agarose gel electrophoresis. It is filed as functional, cell-based.
For data set [14], the system named is L1210. As to the kind of experiment: Cytotoxicity against mouse L1210 cells after 48 hrs by MTT assay. Type of data set: functional, cell-based. Conditions: L1210, 48 h.
Data set [15] has as its system Calf thymus DNA. As to the kind of experiment: Binding affinity to A:T base pair region of calf thymus DNA by UV-visible spectrophotometer. Type of data set: nucleic-acid assay. Conditions: Bos taurus.
Data set [16] concerns HL-60. The data set can be described thus: Cytotoxicity against human HL60 cells at 3 to 10 uM after 72 hrs. Type of data set: functional, cell-based.
The test system of data set [17] is HL-60. The data set can be described thus: Antiproliferative activity against human HL60 cells assessed as cytostatic effect at 1 uM after 72 hrs. Type of data set: functional, cell-based.
Data set [18] has as its system HL-60. The data set can be described thus: Drug uptake in human HL60 cells assessed as drug distribution in plasmatic membrane and cytosol at 5 uM after 4 hrs by fluorescence analysis. It is filed as ADME, cell-based. As to conditions: hl-60, 4 h.
The test system of data set [19] is HL-60. The data set can be described thus: Drug uptake in human HL60 cells assessed as drug accumulation in nucleus at 5 uM after 24 hrs by fluorescence analysis. It is filed as ADME, cell-based. As to conditions: hl-60, 24 h.
The subject of data set [20] is HL-60. As to the kind of experiment: Drug uptake in human HL60 cells assessed as drug accumulation at 5 uM after 140 mins by fluorescence analysis. Type of data set: ADME, cell-based. Conditions: hl-60, 140 min.

For orientation: logP means a log measure of how a compound divides between an organic and an aqueous phase. As usually defined, the IC50 is the point on the concentration scale where inhibition reaches its midpoint. Regarding `CCCCCN1C(=O)CN/C1=N\c1ccc2cc3ccc(/N=C4\NCC(=O)N4CCCCC)cc3nc2c1`, in the data set with Calf thymus DNA [1], the Activity amounted to 45%. Moreover, the inhibition result in the data set listed under Bos taurus [2] was “Active”. In data set [3], this compound had a logP of 4.99. Also, the IC50 in the data set with HL-60 [4] stood at 8.59 µM; in the data set with L1210 [7] it was 15.7 µM; with HL-60 [8] it was 8.37 µM; in the data set with L1210 [9] it was 15.2 µM; in the data set with L1210 [10], 12.4 µM; in the data set on HL-60 [11], 7.18 µM. Besides, the IC50 in the data set with HL-60 [12] was found to be 5.31 µM; in the data set on L1210 [14], 13.7 µM. In addition, the K in the data set with Calf thymus DNA [5] came to 2.8 ×10⁵ /M. Besides, the inhibition result in the data set filed under Bos taurus [6] is “inactive”. The result in the data set with Calf thymus DNA [13] and in the data set with U-937 was Active. For the same compound, the result in the data set on Calf thymus DNA [15] was inactive.
For the compound `CCN1C(=O)CN/C1=N\c1ccc2cc3ccc(/N=C4\NCC(=O)N4CC)cc3nc2c1`, in the data set on Calf thymus DNA [1], the Activity was 34%. Further, the inhibition result in the data set filed under Bos taurus [2] was “Active”. Also, the logP in [3] is 2.17. In addition, the IC50 with HL-60 [4] is 80.3 µM; with L1210 [7], > 100 µM; in the data set with HL-60 [8], 76.6 µM; in the data set on L1210 [9], > 100 µM; in the data set on L1210 [10] it was 91.7 µM; with HL-60 [11], 85.2 µM. In addition, the results for the IC50 in the data set on HL-60 [12] and with L1210 [14] were 83.8 µM and > 100 µM, respectively. Besides, the K in the data set on Calf thymus DNA [5] amounted to 7.1 ×10⁵ /M. In addition, the inhibition result in the data set filed under Bos taurus [6] is “inactive”. In addition, the result in the data set on Calf thymus DNA [13] and in the data set on U-937 was Active. Besides, the result in the data set on Calf thymus DNA [15] was inactive.
With `CCCCN1C(=O)CN/C1=N\c1ccc2cc3ccc(/N=C4\NCC(=O)N4CCCC)cc3nc2c1`, the Activity with Calf thymus DNA [1] came to 50%. Also, the inhibition entry in the data set filed under Bos taurus [2] was “Active”. For the same compound, the logP in data set [3] amounted to 4.1. In addition, the IC50 was determined as 16.4 µM in the data set with HL-60 [4]; 27.3 µM in the data set with L1210 [7]; 13.7 µM with HL-60 [8]; 26.1 µM in the data set with L1210 [9]; 26.4 µM with L1210 [10]; 14.7 µM in the data set on HL-60 [11]. Also, the IC50 amounted to 11.7 µM with HL-60 [12] and 29.2 µM with L1210 [14]. In the data set on Calf thymus DNA [5], the K worked out at 4.2 ×10⁵ /M. The inhibition result in the data set filed under Bos taurus [6] is “inactive”. The outcome in the data set with Calf thymus DNA [13] and in the data set with U-937 was Active. Moreover, in the data set with Calf thymus DNA [15], the outcome was inactive.
In the case of `CCCCCCN1C(=O)CN/C1=N\c1ccc2cc3ccc(/N=C4\NCC(=O)N4CCCCCC)cc3nc2c1.Cl`, the Activity is 47% with Calf thymus DNA [1] and “Toxic” in the data set with HL-60 [16]. Besides, the inhibition entry in the data set listed under Bos taurus [2] was “Active”. The same compound gave a logP in [3] of 5.88. In addition, the IC50 was found to be 4.94 µM with HL-60 [4]; 5.28 µM with L1210 [7]; 4.61 µM with HL-60 [8]; 5.99 µM in the data set on L1210 [9]; 4.31 µM with L1210 [10]; 2.12 µM in the data set with HL-60 [11]. Besides, the IC50 stood at 2.44 µM with HL-60 [12] and 5.52 µM in the data set with L1210 [14]. The compound further gave a K with Calf thymus DNA [5] of 1.9 ×10⁵ /M. Besides, the inhibition result in the data set filed under Bos taurus [6] was “inactive”. Also, the outcome in the data set on HL-60 [17], with Calf thymus DNA [13] and in the data set on U-937 was Active. Further, the Drug uptake entry in the data set with HL-60 [18], in the data set on HL-60 [19] and in the data set on HL-60 [20] was “Active” each time. The outcome in the data set on Calf thymus DNA [15] was inactive.
Regarding `CCCN1C(=O)CN/C1=N\c1ccc2cc3ccc(/N=C4\NCC(=O)N4CCC)cc3nc2c1.Cl`, the Activity in the data set with Calf thymus DNA [1] worked out at 54%. In addition, the inhibition entry in the data set filed under Bos taurus [2] is “Active”. Further, the lipophilicity (logP) in data set [3] was 3.21. The IC50 worked out at 95.7 µM in the data set with HL-60 [4]; 65.4 µM in the data set on L1210 [7]; 74.1 µM in the data set with HL-60 [8]; 68 µM in the data set on L1210 [9]; 44.7 µM in the data set with L1210 [10]; 88.6 µM in the data set on HL-60 [11]. In addition, the IC50 in the data set on HL-60 [12] turned out to be 70.6 µM; in the data set with L1210 [14] it was 45.8 µM. The K in the data set on Calf thymus DNA [5] amounted to 5.7 ×10⁵ /M. For the same compound, the inhibition result in the data set filed under Bos taurus [6] is “inactive”. Moreover, the Drug uptake result is “Active” in the data set with HL-60 [18], “Not Active” in the data set on HL-60 [19] and “Not Active” in the data set with HL-60 [20]. The outcome in the data set on Calf thymus DNA [13] and in the data set on U-937 was Active. Besides, the result with Calf thymus DNA [15] was inactive.
